Results taken from ChEMBL document CHEMBL4665691, “Callicarpins, Two Classes of Rearranged ent-Clerodane Diterpenoids from Callicarpa Plants Blocking NLRP3 Inflammasome-Induced Pyroptosis” (J Nat Prod, 2020).

Tested on: J774.A1
Assay: Cytotoxicity against mouse J774.A1 cells by LDH release assay
Type: functional, cell-based

Compound	IC50 (Mus musculus, J774.A1) [µM]	IC50 (j774.a1) [µM]
COC(=O)[C@H]1C[C@@H]2[C@@](C)(C[C@H](O)C3=CC(=O)OC3O)[C@H](C)CC[C@@]2(C)[C@@]1(C)O (some centres not stated)	1.5	–
C[C@@H]1CC[C@@]2(C)C(=O)C[C@H](O)CC[C@@H]2[C@@]1(C)C[C@H](O)C1=CC(=O)OC1O (mixture of isomers)	25.4	–
CC1=CCC[C@@H]2[C@@](C)(C[C@H](O)C3=CC(=O)OC3O)[C@H](C)CC[C@@]12C (some centres not stated)	3.6	–
C[C@@H]1CC[C@]2(C)[C@H](CC(=O)[C@H]2C)[C@@]1(C)C[C@H](O)C1=CC(=O)OC1O (some centres not stated)	1.4	–
CC(=O)O[C@@H]1CC[C@@H]2[C@@](C)(C[C@H](O)C3=CC(=O)O[C@@H]3OC(C)=O)[C@H](C)CC[C@@]2(C)C(=O)C1	5.3	–
C[C@@H]1CC[C@]2(C)[C@H](C[C@H](C(=O)O)[C@]2(C)O)[C@@]1(C)C[C@H](O)C1=CC(=O)OC1O (some centres not stated)	24.7	–
C[C@@H]1CC[C@@]2(C)C(=O)C[C@@H](O)CC[C@@H]2[C@@]1(C)C[C@H](O)C1=CC(=O)OC1O (stereo in doubt; 1)	–	16.6
